Results: patent US20230095836A1, “SUBSTITUTED 5,6-DIPHENYL-3(2H)-PYRIDAZINONES FOR USE AS FUNGICIDES” (FMC Corporation, priority 2020, published 2023)

Columns and labels:
Assay type in all cases: in vivo
Zymoseptoria tritici = test: Test A: test solution sprayed on wheat seedlings, inoculated next day with Zymoseptoria tritici (wheat leaf blotch); disease rating (100 = 100% disease control, 0 = no control; dash = not tested)
Method in brief: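 Wheat seedlings sprayed to run-off with test solution, inoculated next day with Z. tritici spores, held 48 h at 24° C in saturated atmosphere, then 17 days at 20° C before rating. Scores are % disease control relative to controls (100 = full control, 0 = none).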

[1] = tested on: Puccinia recondita f. sp. tritici; test: Test B: test solution sprayed on wheat seedlings, inoculated next day with Puccinia recondita f. sp. tritici (wheat leaf rust); disease rating (100 = 100% disease control, 0 = no control; dash = not tested)
From the text: The resulting test suspensions were then used in Tests A-F. The test solution was sprayed to the point of run-off on wheat seedlings. […] A rating of 100 indicates 100% disease control and a rating of 0 indicates no disease control (relative to the controls). A dash (—) indicates the compound was not tested.

Alternaria solani = test: Test F: test suspension sprayed on tomato seedlings, inoculated next day with Alternaria solani (tomato early blight); visual disease rating (100 = 100% disease control, 0 = no control; dash = not tested)
Method in brief: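 Tomato seedlings sprayed to run-off with test suspension, inoculated next day with A. solani spores, held saturated at 27° C. for 48 h, then 20° C. for 3 days. Disease visually rated as % control relative to untreated controls.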

[2] = tested on: Blumeria graminis f. sp. tritici; test: Test C: test suspension sprayed on wheat seedlings, inoculated next day with Blumeria graminis f. sp. tritici (wheat powdery mildew); visual disease rating (100 = 100% disease control, 0 = no control; dash = not tested)
Method in brief: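 Wheat seedlings were sprayed to run-off with test suspension, then dusted next day with Blumeria graminis f. sp. tritici spores. After 8 days at 20 °C in a growth chamber, disease was rated visually as percent control relative to untreated controls.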

Phakopsora pachyrhizi = test: Test D: test solution sprayed on soybean seedlings, inoculated next day with Phakopsora pachyrhizi (Asian soybean rust); visual disease rating (100 = 100% disease control, 0 = no control; dash = not tested)
Method in brief: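 Compounds predissolved in acetone (3% of final volume), suspended at ppm concentrations in 50/50 acetone/water with 250 ppm PEG400, sprayed to run-off on soybean seedlings. Inoculated next day with spores, 24 h saturated atmosphere at 22 °C, then 8 days growth chamber at 22 °C; visual rating, 100 = full control.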

Botrytis cinerea = test: Test E: test suspension sprayed on tomato seedlings, inoculated next day with Botrytis cinerea (tomato Botrytis); visual disease rating (100 = 100% disease control, 0 = no control; dash = not tested)
Method in brief: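 Tomato seedlings were sprayed to run-off and inoculated next day with Botrytis cinerea spores. They were held 48 h at 20° C in saturated humidity, then 3 days at 24° C. Disease control was rated visually against controls (100 = full, 0 = none).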

Structure (SMILES)	Test A disease control rating (Zymoseptoria tritici; 50 ppm)	Test B disease control rating ([1]; 50 ppm)	Test F disease control rating (Alternaria solani; 50 ppm)	Test C disease control rating ([2]; 50 ppm)	Test D disease control rating (Phakopsora pachyrhizi; 50 ppm)	Test E disease control rating (Botrytis cinerea; 50 ppm)	further results
COc1cc(F)cc(-c2nn(C)c(=O)cc2-c2c(F)cccc2F)c1 [Compound 27]							Test A disease control rating (Zymoseptoria tritici; 250 ppm): 99%; Test B disease control rating ([1]; 250 ppm): 99%; Test F disease control rating (Alternaria solani; 250 ppm): 0%; Test C disease control rating ([2]; 250 ppm): 97%; Test D disease control rating (Phakopsora pachyrhizi; 250 ppm): 56%; Test E disease control rating (Botrytis cinerea; 250 ppm): 96%
Cn1nc(-c2ccccc2)c(-c2c(F)cccc2F)c(Cl)c1=O [Compound 193]							Test A disease control rating (Zymoseptoria tritici; 250 ppm): 97%; Test B disease control rating ([1]; 250 ppm): 100%; Test F disease control rating (Alternaria solani; 250 ppm): 99%; Test C disease control rating ([2]; 250 ppm): 100%; Test D disease control rating (Phakopsora pachyrhizi; 250 ppm): 61%; Test E disease control rating (Botrytis cinerea; 250 ppm): 100%
COc1ccc(Cl)c(-c2nn(C)c(=O)c(Cl)c2-c2ccccc2F)c1 [Compound 183]	100%	100%	100%	96%	94%	98%	
COc1cc(-c2nn(C)c(=O)c(Cl)c2-c2ccc(F)cc2Cl)cc(C#N)c1Cl [Compound 52]	100%	100%	100%	99%	98%	92%	
Cn1nc(-c2cc(F)ccc2Br)c(-c2ccc(F)cc2Cl)c(Cl)c1=O [Compound 119]	100%	100%	100%	100%	99%	96%	
CCN1N=C(c2cc(OC)cc(OC)c2)C(c2ccc(F)cc2Cl)CC1=O (stereo not drawn) [Compound 19]							Test A disease control rating (Zymoseptoria tritici; 250 ppm): 0%; Test B disease control rating ([1]; 250 ppm): 0%; Test F disease control rating (Alternaria solani; 250 ppm): 0%; Test C disease control rating ([2]; 250 ppm): 0%; Test D disease control rating (Phakopsora pachyrhizi; 250 ppm): 0%; Test E disease control rating (Botrytis cinerea; 250 ppm): 0%
Cn1nc(-c2ccc(F)cc2Cl)c(-c2ccc(F)cc2Cl)c(Cl)c1=O [Compound 60]	100%	100%	99%	99%	93%	98%	
COc1c(-c2ccc(F)cc2Cl)c(-c2cc(C#N)ccc2Cl)nn(C)c1=O [Compound 53]	100%	100%	40%	99%	68%	92%	
COc1cc(OC)c(Br)c(-c2nn(C)c(=O)c(C)c2-c2ccc(F)cc2Cl)c1 [Compound 64, 6-(2-bromo-3,5-dimethoxyphenyl)-5-(2-chloro-4-fluorophenyl)-2,4-dimethyl-3(2H)-pyridazinone]							pest or weed control at 50 ppm (Zymoseptoria tritici; 50 ppm): 100%; pest or weed control at 50 ppm ([1]; 50 ppm): 100%; pest or weed control at 50 ppm (Alternaria solani; 50 ppm): 100%; pest or weed control at 50 ppm ([2]; 50 ppm): 100%; pest or weed control at 50 ppm (Phakopsora pachyrhizi; 50 ppm): 100%; pest or weed control at 50 ppm (Botrytis cinerea; 50 ppm): 100%
CCc1c(-c2c(F)cccc2F)c(-c2cc(OC)cc(F)c2Br)nn(C)c1=O [Compound 181]	98%	100%	100%	100%	100%	94%	
COc1cc(OC)cc(C2=NN(C)C(=O)CC2c2ccc(F)cc2Cl)c1 (stereo not drawn) [Compound 20]							Test A disease control rating (Zymoseptoria tritici; 250 ppm): 51%; Test B disease control rating ([1]; 250 ppm): 9%; Test F disease control rating (Alternaria solani; 250 ppm): 0%; Test C disease control rating ([2]; 250 ppm): 21%; Test D disease control rating (Phakopsora pachyrhizi; 250 ppm): 0%; Test E disease control rating (Botrytis cinerea; 250 ppm): 31%
COc1cc(OC)c(Cl)c(-c2nn(C)c(=O)c(C)c2-c2c(F)cccc2F)c1 [Compound 194, 6-(2-chloro-3,5-dimethoxyphenyl)-5-(2,6-difluorophenyl)-2,4-dimethyl-3(2H)-pyridazinone]							pest or weed control at 50 ppm (Zymoseptoria tritici; 50 ppm): 100%; pest or weed control at 50 ppm ([1]; 50 ppm): 100%; pest or weed control at 50 ppm (Alternaria solani; 50 ppm): 99%; pest or weed control at 50 ppm ([2]; 50 ppm): 100%; pest or weed control at 50 ppm (Phakopsora pachyrhizi; 50 ppm): 100%; pest or weed control at 50 ppm (Botrytis cinerea; 50 ppm): 100%
COc1cc(OC)cc(-c2nn(C)c(=O)c(OC)c2-c2ccc(F)cc2Cl)c1 [Compound 78]	100%	99%	99%	98%	59%	95%	
CCOC(=O)c1c(-c2ccc(F)cc2Cl)c(-c2ccc(F)cc2Cl)nn(C)c1=O [Compound 143]							Test A disease control rating (Zymoseptoria tritici; 250 ppm): 6%; Test B disease control rating ([1]; 250 ppm): 80%; Test F disease control rating (Alternaria solani; 250 ppm): 0%; Test C disease control rating ([2]; 250 ppm): 100%; Test D disease control rating (Phakopsora pachyrhizi; 250 ppm): 0%; Test E disease control rating (Botrytis cinerea; 250 ppm): 0%
COc1cc(F)cc(-c2nn(C)c(=O)c(Cl)c2-c2ccc(F)cc2Cl)c1 [Compound 76]	100%	100%	99%	99%	99%	97%	
COc1c(-c2ccc(F)cc2Cl)c(-c2ccccc2Cl)nn(C)c1=O [Compound 160]	100%	100%	0%	100%	73%	99%	
COc1ccc(Cl)c(-c2nn(C)c(=O)c(OC)c2-c2ccc(F)cc2F)c1 [Compound 48]	100%	100%	99%	99%	97%	98%	
CCn1nc(-c2cc(OC)cc(OC)c2)c(-c2cc(OC)cc(OC)c2)cc1=O [Compound 3]							Test A disease control rating (Zymoseptoria tritici; 250 ppm): 7%; Test B disease control rating ([1]; 250 ppm): 0%; Test F disease control rating (Alternaria solani; 250 ppm): 0%; Test C disease control rating ([2]; 250 ppm): 0%; Test D disease control rating (Phakopsora pachyrhizi; 250 ppm): 0%; Test E disease control rating (Botrytis cinerea; 250 ppm): 0%
CCn1nc(-c2cc(OC)cc(OC)c2Br)c(-c2c(F)cccc2F)c(C#N)c1=O [Compound 100]	100%	100%	93%	99%	100%	99%	
COc1ccc(Cl)c(-c2nn(C)c(=O)c(Cl)c2-c2ccc(C#N)cc2Cl)c1 [Compound 186]	99%	100%	100%	97%	99%	90%	
COc1cc(F)cc(-c2nn(C)c(=O)c(Cl)c2-c2ccc(F)cc2Cl)c1Br [Compound 158]	100%	100%	99%	100%	100%	99%	
